{
  "source": "patent US20180346525A1",
  "about": "“DIAGNOSTIC AND THERAPEUTIC QUORUM-SENSING-MANIPULATION MOLECULES THAT ARE TRACKABLE FOR HEALTH-CARE AND INDUSTRIAL SYSTEMS” (The Trustees of Princeton University, priority 2017, published 2018)",
  "test_system": "S. aureus Agr QS (AgrC-I/AgrA, agrP3 promoter)",
  "assay": "Agr QS fluorescence reporter (agrP3-mkate2) in S. aureus reporter strain",
  "format": "cell-based, Staphylococcus aureus",
  "conditions": "FIG. 3",
  "source_text": "FIG. 1 illustrates the Agr QS responses of S. aureus to exogenously supplied agonists and antagonists or conjugates of those compounds attached to detectable moieties. To follow the QS status of S. aureus cells, confocal microscopy and an S. aureus reporter strain that produced the fluorescent protein mKate2 in response to exogenous addition of AIP-I was used. The reporter strain was a ΔagrBDCA ΔRNAIII S. aureus mutant harboring agrCA driven by the native agrP2 promoter. […] The plasmid also harbored the Agr-activated agrP3 promoter fused to mkate2. […] This QS response was repressed by the administration of AIP-II. […] However, once the cells detected the exogenous autoinducers, the cells produced mKate2 (red fluorescent protein). […]\nTranscription from fluorescence reporter genes was measured in S. aureus strain MK242. […] Using a Synergy 2 plate reader (Biotek, Winooski, Vt.), GFPmut2 and mKate2 levels were measured at 484 nm/528 nm and 588 nm/633 nm, respectively. […]\nImaging was performed using a Nikon Eclipse Ti inverted microscope (Melville, N.Y.) fitted with a Yokogawa CSU X-1 confocal spinning disk scanning unit (Biovision Technologies, Exton, Pa.) and DU-897 X-9351 camera (Andor, Concord, Mass.). […] In the area of an individual cell, both the constitutive GFPmut2 fluorescence and the QS controlled mKate2 fluorescence were measured, subtracted from background signals and summed. […]",
  "data": [
    {"substance": "AIP-I", "values": [
      {"measurement": "mKate2 production in the reporter strain", "setting": "1 μM compound alone", "result": "produced"},
      {"measurement": "Specific binding to AgrC receptors, indicated by AIP-II competition", "result": "specifically bind to AgrC receptors"}
    ]}
  ]
}
